According to publication PMC9940851, “Seleno Containing Compounds as Potent and Selective Antifungal Agents” (ACS Infectious Diseases, 2022):
Values after ≈ are worked out from the molar mass of the structure shown.

What was measured:
[1] = tested on: C. albicans; experiment: microbe, parasite or virus in culture; design: broth microdilution MIC, M. pachydermatis and Candida, 35 °C; settings: Candida albicans
Protocol: (§1) Inoculum preparations for antifungal assays were performed following the CLSI guidelines for antifungal susceptibility testing of yeasts.[31] Antifungal activity was evaluated on unicellular yeasts Candida albicans ATCC 10231, Candida glabrata ATCC 90030 (DSMZ 11226), Malassezia pachydermatis CDC 16334 (DSMZ 6172), Malassezia globosa ATCC MYA 4612, and Malassezia furfur ATCC 14521. All the fungal strains were stored at −80 °C in cryovials. Then Candida spp. and Malassezia pachydermatis were reactivated in RPMI 1640 broth for 24–48 h at 35 °C. The so obtained fresh cultures were streaked onto Sabouraud dextrose agar and incubated for 24–48 h at 35 °C. Malassezia globosa and furfur were reactivated in modified RPMI 1640 broth[32] for 24–48 h at 35 °C (M. furfur) and 33 °C (M. globosa), and then the cultures were streaked onto Leeming and Notman agar (MLNA) and incubated for 48–72 h at 35 °C for M. furfur and at 33 °C for M. globosa. The fungal inoculum for the testing was prepared by suspending in phosphate buffer (PB) 10 mM pH 7 4–5 colonies of about 1 mm diameter. The fungal suspension was then adjusted to a final optical density of 0.5 McFarland standard (1–5 × 10^6 cells/mL). The compound solutions were tested in a range of concentrations from 0.01 μg/mL to 256 μg/mL, and 50 μL were then added in 96 wells microtiter plates with 50 μL of fungal inoculum and incubated for 24–48 h at 35 °C. Growth and sterility controls were performed. […] Compounds 3a, 3c, 5b, 7a–d, 9c, 11e, 11i, and 14a,b were selected as representatives of the chemical moieties synthesized prior to their screen on yeasts of biomedical relevance such as M. pachydermatis DSMZ 6172, C. albicans ATCC 10231, and C. glabrata ATCC 90030 (DSMZ 11226) strains. The clinical used drugs Ketoconazole, SeS2, and Amphotericin B were included as references (Table 1).

[2] = tested on: T1, C. glabrata DSMZ 11226; experiment: microbe, parasite or virus in culture; design: broth microdilution MIC, M. pachydermatis and Candida, 35 °C; settings: Nakaseomyces glabratus, DSMZ11226
T1 construct: DSMZ 11226 (ATCC 90030)
Protocol: as §1

[3] = tested on: T2, M. pachydermatis DSMZ 6172; experiment: microbe, parasite or virus in culture; design: broth microdilution MIC, M. pachydermatis and Candida, 35 °C; settings: Malassezia pachydermatis, DSMZ6172
T2 construct: DSMZ 6172 (CDC 16334)
Protocol: as §1

[4] = tested on: T3, ATCC M. furfur 14521; experiment: microbe, parasite or virus in culture; settings: Malassezia furfur
T3 construct: ATCC 14521
Protocol: as §1

[5] = tested on: T4, M. globosa ATCC MYA 4612; experiment: microbe, parasite or virus in culture; settings: Malassezia globosa
T4 construct: ATCC MYA 4612
Protocol: as §1

[6] = target: T5, MpaCA (Malassezia pachydermatis, UniProt A0A0M8MPA4); experiment: stopped-flow CO2 hydrase assay; assay type: biochemical
T5 construct: gene Malapachy_3798
T5 sequence (A0A0M8MPA4 1-242): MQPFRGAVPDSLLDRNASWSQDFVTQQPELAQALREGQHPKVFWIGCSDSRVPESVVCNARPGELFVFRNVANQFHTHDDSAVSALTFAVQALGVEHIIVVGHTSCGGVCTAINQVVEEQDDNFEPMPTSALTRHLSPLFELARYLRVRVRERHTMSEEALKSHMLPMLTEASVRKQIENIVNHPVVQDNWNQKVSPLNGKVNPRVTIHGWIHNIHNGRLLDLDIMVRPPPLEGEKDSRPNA

[7] = target: T6, MgCA (Malassezia globosa, UniProt A8Q1N3); experiment: stopped-flow CO2 hydrase assay; assay type: biochemical
T6 construct: gene MGL_1814
T6 sequence (A8Q1N3 1-241): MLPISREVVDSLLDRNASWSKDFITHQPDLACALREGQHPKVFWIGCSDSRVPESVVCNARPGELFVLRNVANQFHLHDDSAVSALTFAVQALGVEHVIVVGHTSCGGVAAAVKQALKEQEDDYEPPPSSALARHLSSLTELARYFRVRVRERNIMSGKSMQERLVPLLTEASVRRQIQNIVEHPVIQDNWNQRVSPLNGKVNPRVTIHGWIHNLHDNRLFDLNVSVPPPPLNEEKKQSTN
Summary of the method: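 Recombinant carbonic anhydrase (5–12 nM) was preincubated with inhibitor for 15 min at room temperature. CO2 hydration (1.7–17 mM CO2) was then followed by stopped-flow using 0.2 mM phenol red at 557 nm in 20 mM Hepes pH 7.4 with 20 mM Na2SO4, over 10–100 s. Initial rates came from at least six traces, minus uncatalysed rates, and at least three determinations were averaged. Ki was obtained by nonlinear least-squares fitting with the Cheng-Prusoff equation.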

[8] = target: T6, MgCA; experiment: biochemical; design: stopped-flow CO2 hydration assay, phenol red absorbance at 557 nm, 15 min preincubation, Cheng-Prusoff KI
Protocol: Enzyme concentrations ranged between 5 and 12 nM. […] The presence of the sulfonamide moiety (i.e., either primary/secondary) within our scaffolds prompted us to investigate whether the compounds listed in this study were endowed with modulation features against the enzymatic metalloenzyme carbonic anhydrases (CAs, EC 4.2.1.1) expressed in Malassezia spp. of interest such as M. pachydermatis (MpaCA), M. globosa (MgCA), and M. restricta (MreCA). […] The obtained activities in Table 3 were all reported as KI values.

| SMILES | MIC [1] [µg/mL] | MIC [2] [µg/mL] | MIC [3] [µg/mL] | MIC [4] [µg/mL] | MIC [5] [µg/mL] | Ki [6] [µM] | Ki [7] [µM] | Ki [8] [µM] |
| --- | --- | --- | --- | --- | --- | --- | --- | --- |
| CC(=O)N1CCN(c2ccc(OC[C@@H]3CO[C@@](Cn4ccnc4)(c4ccc(Cl)cc4Cl)O3)cc2)CC1 (racemic) [Ketoconazole] | 0.05 ± 0.02 (≈ 0.0941 µM) | 96 ± 37 (≈ 181 µM) | 0.03 (≈ 0.0565 µM) | 0.25 (≈ 0.47 µM) | 0.25 (≈ 0.47 µM) | – | – | – |
| NS(=O)(=O)c1ccc(NC(=[Se])Nc2ccccc2)cc1 [3a] | 64 (≈ 181 µM) | 10.7 (≈ 30.2 µM) | 0.5 (≈ 1.41 µM) | 0.5 (≈ 1.41 µM) | 4.3 ± 1.97 (≈ 12.1 µM) | 0.514 | 0.599 | – |
| NS(=O)(=O)c1ccc(NC(=[Se])Nc2ccccc2F)cc1 [3c] | 341 (≈ 917 µM) | 64 (≈ 172 µM) | 64 (≈ 172 µM) | 16 (≈ 43 µM) | > 256 | 0.152 | 0.721 | – |
| NS(=O)(=O)c1ccc(CCNC(=[Se])Nc2ccccc2F)cc1 [5b] | 107 (≈ 267 µM) | 3.3 (≈ 8.24 µM) | 0.25 (≈ 0.624 µM) | 1 (≈ 2.5 µM) | 9 ± 5.9 (≈ 22.5 µM) | 0.149 | 0.633 | – |
| NS(=O)(=O)c1ccc(NC(=[Se])NC(=O)c2ccccc2)cc1 [7a] | 128 (≈ 335 µM) | 32 (≈ 83.7 µM) | 0.5 (≈ 1.31 µM) | 0.85 ± 0.36 (≈ 2.22 µM) | 14.7 ± 3.26 (≈ 38.5 µM) | 44.8 | 3.85 | – |
| NS(=O)(=O)c1ccc(NC(=[Se])NC(=O)c2ccc3c(c2)OCO3)cc1 [7b] | 128 (≈ 300 µM) | 16 (≈ 37.5 µM) | 0.5 (≈ 1.17 µM) | 0.5 (≈ 1.17 µM) | 16 ± 8.76 (≈ 37.5 µM) | 20.4 | 4.86 | – |
| NS(=O)(=O)c1ccc(NC(=[Se])NC(=O)c2cc(Br)cc(OC(F)(F)F)c2)cc1 [7c] | 64 (≈ 117 µM) | 8 (≈ 14.7 µM) | 0.5 (≈ 0.917 µM) | 4 (≈ 7.34 µM) | 128 (≈ 235 µM) | 83.5 | 4.3 | – |
| CC(=O)Oc1ccccc1C(=O)NC(=[Se])Nc1ccc(S(N)(=O)=O)cc1 [7d] | 128 (≈ 291 µM) | 64 (≈ 145 µM) | 3.33 ± 1.15 (≈ 7.56 µM) | 2.7 ± 1.15 (≈ 6.13 µM) | 256 (≈ 581 µM) | 66.8 | 5.88 | – |
| NS(=O)(=O)c1ccc(CCNC(=[Se])NC(=O)c2ccc3c(c2)OCO3)cc1 [9c] | > 256 | > 256 | 1 (≈ 2.2 µM) | 2 ± 1.37 (≈ 4.4 µM) | 37.3 ± 13.1 (≈ 82.1 µM) | 55.9 | 1.78 | – |
| CC(=O)Oc1ccccc1C(=O)NC(=[Se])Nc1cc(S(N)(=O)=O)ccc1O [11e] | 256 (≈ 561 µM) | 256 (≈ 561 µM) | 0.5 (≈ 1.1 µM) | 0.75 ± 0.67 (≈ 1.64 µM) | 6.7 ± 2.1 (≈ 14.7 µM) | 33.8 | 4.73 | – |
| NS(=O)(=O)c1ccc(O)c(NC(=[Se])NC(=O)c2cc(Br)cc(OC(F)(F)F)c2)c1 [11i] | 64 (≈ 114 µM) | 32 (≈ 57 µM) | 0.5 (≈ 0.891 µM) | 5 ± 2.45 (≈ 8.91 µM) | 64 (≈ 114 µM) | 12.7 | – | 6.25 |
| Cc1cccc(C(=O)NC(=[Se])Nc2cc(S(N)(=O)=O)ccc2O)c1 [11j] | – | – | 0.5 (≈ 1.21 µM) | 16 ± 8.76 (≈ 38.8 µM) | 128 (≈ 310 µM) | 14.8 | – | 5.64 |
| O=C(Nc1ccccc1)Nc1ccccc1F [14c] | – | – | > 256 | > 256 | > 256 | > 10 | – | > 10 |
| Fc1ccccc1NC(=S)Nc1ccccc1 [14d] | – | – | > 256 | 128 (≈ 520 µM) | > 256 | > 10 | – | > 10 |
| O=C(NC(=[Se])Nc1ccccc1)c1ccccc1 [16a] | – | – | 0.8 ± 0.29 (≈ 2.64 µM) | 0.8 ± 0.6 (≈ 2.64 µM) | 29.3 ± 18.7 (≈ 96.6 µM) | > 10 | – | > 10 |
| O=C(NC(=[Se])Nc1ccccc1)c1cc(Br)cc(OC(F)(F)F)c1 [16b] | – | – | 1 (≈ 2.15 µM) | 10.7 ± 4.62 (≈ 23 µM) | 341 ± 148 (≈ 732 µM) | > 10 | – | > 10 |
| O=C(NC(=[Se])Nc1ccccc1F)c1ccccc1 [16c] | – | – | 1 (≈ 3.11 µM) | 2 (≈ 6.23 µM) | 64 (≈ 199 µM) | > 10 | – | > 10 |
| O=C(NC(=[Se])Nc1c(F)c(F)cc(F)c1F)c1ccccc1 [16d] | – | – | 1 (≈ 2.67 µM) | 2.7 ± 1.15 (≈ 7.2 µM) | > 256 | > 10 | – | > 10 |
| C[C@@H]1[C@H](O)[C@@H](C)/C=C/C=C/C=C/C=C/C=C/C=C/C=C/[C@H](O[C@@H]2O[C@H](C)[C@@H](O)[C@H](N)[C@@H]2O)C[C@@H]2O[C@](O)(C[C@@H](O)C[C@@H](O)[C@H](O)CC[C@@H](O)C[C@@H](O)CC(=O)O[C@H]1C)C[C@H](O)[C@H]2C(=O)O [Amphotericin B] | 0.24 ± 1 (≈ 0.26 µM) | 0.98 (≈ 1.06 µM) | 0.43 ± 0.12 (≈ 0.465 µM) | 1.95 (≈ 2.11 µM) | 125 (≈ 135 µM) | – | – | – |
| NS(=O)(=O)c1ccc(C[Se]c2ccc(NC(=[Se])NC(=O)c3cc(Br)cc(OC(F)(F)F)c3)cc2)cc1 [compound 12, 3-Bromo-N-((4-((4-sulfamoylbenzyl)selanyl)phenyl)carbamoselenoyl)-5-(trifluoromethoxy)benzamide] | – | – | 6.7 ± 2.3 (≈ 9.38 µM) | 128 (≈ 179 µM) | 256 (≈ 358 µM) | 71.6 | – | 1.76 |
